From PMC9798004 (Frontiers in Psychiatry, 2022)

What was measured:
GALR1 = molecular target: T1, GALR1 (Homo sapiens, UniProt P47211); test: PathHunter β-arrestin assay; type: cell-based; details: antagonist mode, up to 30 μM
T1 construct: purchased Eurofins DiscoverX (PathHunter gpcrMAX)

GPR119 = molecular target: T2, GPR119 (Homo sapiens, UniProt Q8TDV5); test: PathHunter β-arrestin assay; type: cell-based; details: antagonist mode, 30 μM
T2 construct: purchased Eurofins DiscoverX (PathHunter gpcrMAX)
T2 sequence (Q8TDV5 1-335): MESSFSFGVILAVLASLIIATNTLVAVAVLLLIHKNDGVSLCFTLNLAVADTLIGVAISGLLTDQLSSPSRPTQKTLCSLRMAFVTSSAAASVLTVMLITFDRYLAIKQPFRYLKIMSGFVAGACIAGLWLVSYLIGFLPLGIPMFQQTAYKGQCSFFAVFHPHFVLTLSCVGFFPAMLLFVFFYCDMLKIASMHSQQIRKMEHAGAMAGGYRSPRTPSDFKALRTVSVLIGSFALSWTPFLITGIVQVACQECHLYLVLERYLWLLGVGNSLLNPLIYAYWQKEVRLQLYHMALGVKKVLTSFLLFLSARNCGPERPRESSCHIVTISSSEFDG

ADRA2C = molecular target: T3, ADRA2C (Homo sapiens, UniProt P18825); test: PathHunter β-arrestin assay; type: cell-based
T3 sequence (P18825 1-462): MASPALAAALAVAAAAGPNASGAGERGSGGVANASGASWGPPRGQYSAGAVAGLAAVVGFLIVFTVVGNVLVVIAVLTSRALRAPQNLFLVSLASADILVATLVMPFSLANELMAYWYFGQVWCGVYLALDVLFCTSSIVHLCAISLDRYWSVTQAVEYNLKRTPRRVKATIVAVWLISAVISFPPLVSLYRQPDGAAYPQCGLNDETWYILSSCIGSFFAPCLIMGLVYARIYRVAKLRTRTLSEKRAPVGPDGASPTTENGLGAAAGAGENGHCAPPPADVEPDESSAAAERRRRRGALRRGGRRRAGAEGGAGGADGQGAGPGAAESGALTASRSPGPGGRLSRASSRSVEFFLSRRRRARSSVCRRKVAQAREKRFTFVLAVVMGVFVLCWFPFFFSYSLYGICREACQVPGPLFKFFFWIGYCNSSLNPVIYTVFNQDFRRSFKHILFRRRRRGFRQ

[1] = parameters: method as in PMID 35210552; details: rats; cited from earlier work
[2] = system: AtT20 cells expressing human CB1 (hCB1); test: LDH release cytotoxicity assay; type: cell-based; details: 30 μM
Method: AtT20 cells expressing either human CB1 (hCB1) or CB2 (hCB2) receptors or wildtype (WT) were grown to confluence in T75 cm^2 flasks in Dulbecco's modified eagle medium containing 10% fetal bovine serum, 100 U penicillin/streptomycin, and 80 μg/mL hygromicyin (Sigma-Aldrich/Merck; Castle Hill, NSW, Australia). Cells were plated in 96-well-microplates at 30,000 cells per well and allowed to adhere overnight in 5% CO2. The following morning, cells were treated with either vehicle (0.1% DMSO; negative control), 30 μM Δ^9-THC, or 30 μM AMB-FUBINACA. At 1 or 6 h, the amount of lactate dehydrogenase in the cell media was tested, and compared with positive control (lysed cells) as per manufacturer's instructions (Dojindo Molecular Technologies, Inc.; Rockville, MD, USA), with readings performed on a Clariostar Plus plate reader (BMG Labtech, Mornington, VIC, Australia). Experiments were performed in triplicate. In order to measure any accumulating LDH, media was not changed after initial incubation. Data is represented as means ± S.E.M. A two-way ANOVA with was performed on the data at each time point, with Tukey's multiple comparison test (α = 0.05). A p < 0.05 was considered statistically significant.

HRH2 = HRH2 (Homo sapiens, UniProt P25021); test: PathHunter β-arrestin assay; type: cell-based; details: antagonist mode vs EC80 of control agonist, 10-point curve
Sequence of HRH2 (P25021 whole entry): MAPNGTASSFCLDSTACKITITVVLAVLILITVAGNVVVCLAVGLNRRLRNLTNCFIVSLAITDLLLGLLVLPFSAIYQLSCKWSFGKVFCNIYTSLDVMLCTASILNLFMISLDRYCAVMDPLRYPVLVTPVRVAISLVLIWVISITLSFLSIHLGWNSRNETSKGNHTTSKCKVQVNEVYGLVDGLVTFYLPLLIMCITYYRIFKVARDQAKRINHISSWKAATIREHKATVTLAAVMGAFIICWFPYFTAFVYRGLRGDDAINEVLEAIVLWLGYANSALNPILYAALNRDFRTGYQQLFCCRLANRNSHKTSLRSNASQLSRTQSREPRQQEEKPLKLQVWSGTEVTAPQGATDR

ADORA3 = molecular target: T4, ADORA3 (Homo sapiens, UniProt P0DMS8); test: PathHunter β-arrestin assay; type: cell-based; details: antagonist mode vs EC80 of control agonist, 10-point curve
T4 construct: host or cells: CHO
T4 sequence (P0DMS8 whole entry): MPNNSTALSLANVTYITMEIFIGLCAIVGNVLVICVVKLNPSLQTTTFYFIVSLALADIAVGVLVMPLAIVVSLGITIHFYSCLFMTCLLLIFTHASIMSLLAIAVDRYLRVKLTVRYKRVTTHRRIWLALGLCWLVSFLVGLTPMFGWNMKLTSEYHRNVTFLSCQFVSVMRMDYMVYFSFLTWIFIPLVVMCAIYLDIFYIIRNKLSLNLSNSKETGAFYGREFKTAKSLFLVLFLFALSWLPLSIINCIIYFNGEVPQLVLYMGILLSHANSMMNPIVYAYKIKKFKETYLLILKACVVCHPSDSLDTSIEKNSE

CHRM2 = molecular target: T5, CHRM2 (Homo sapiens, UniProt P08172); test: PathHunter β-arrestin assay; type: cell-based; details: antagonist mode vs EC80 of control agonist, 10-point curve
T5 sequence (P08172 1-466): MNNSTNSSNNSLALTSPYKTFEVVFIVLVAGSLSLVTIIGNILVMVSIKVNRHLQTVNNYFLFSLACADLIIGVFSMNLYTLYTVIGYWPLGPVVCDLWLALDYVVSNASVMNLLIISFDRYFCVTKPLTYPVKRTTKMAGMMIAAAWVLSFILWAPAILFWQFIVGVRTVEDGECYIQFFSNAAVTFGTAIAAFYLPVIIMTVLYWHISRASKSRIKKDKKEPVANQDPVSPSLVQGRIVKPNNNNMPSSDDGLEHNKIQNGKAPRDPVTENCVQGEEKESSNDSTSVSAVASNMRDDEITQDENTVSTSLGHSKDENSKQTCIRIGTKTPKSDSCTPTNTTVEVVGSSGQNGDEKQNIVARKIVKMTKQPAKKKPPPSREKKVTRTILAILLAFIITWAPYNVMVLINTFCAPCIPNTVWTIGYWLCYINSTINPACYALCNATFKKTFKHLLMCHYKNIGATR

UTR2 = UTR2 (Homo sapiens, UniProt Q9UKP6); test: PathHunter β-arrestin assay; type: cell-based; details: antagonist mode, up to 30 μM
Sequence of UTR2 (Q9UKP6 whole entry): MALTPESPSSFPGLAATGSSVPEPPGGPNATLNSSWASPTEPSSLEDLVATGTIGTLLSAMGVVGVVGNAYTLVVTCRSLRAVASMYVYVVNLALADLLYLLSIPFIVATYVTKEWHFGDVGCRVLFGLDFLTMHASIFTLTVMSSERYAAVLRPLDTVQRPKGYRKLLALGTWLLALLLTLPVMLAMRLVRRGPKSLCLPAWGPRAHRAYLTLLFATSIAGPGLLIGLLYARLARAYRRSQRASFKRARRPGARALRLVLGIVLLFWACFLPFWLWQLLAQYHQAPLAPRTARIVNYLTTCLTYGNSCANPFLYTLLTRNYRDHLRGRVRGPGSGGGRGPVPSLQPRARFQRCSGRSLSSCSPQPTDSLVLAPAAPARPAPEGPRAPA

GIPR = molecular target: T6, GIPR (Homo sapiens, UniProt P48546); test: PathHunter β-arrestin assay; type: cell-based; details: antagonist mode, up to 30 μM
T6 construct: purchased Eurofins DiscoverX (PathHunter gpcrMAX)
T6 sequence (P48546 22-466): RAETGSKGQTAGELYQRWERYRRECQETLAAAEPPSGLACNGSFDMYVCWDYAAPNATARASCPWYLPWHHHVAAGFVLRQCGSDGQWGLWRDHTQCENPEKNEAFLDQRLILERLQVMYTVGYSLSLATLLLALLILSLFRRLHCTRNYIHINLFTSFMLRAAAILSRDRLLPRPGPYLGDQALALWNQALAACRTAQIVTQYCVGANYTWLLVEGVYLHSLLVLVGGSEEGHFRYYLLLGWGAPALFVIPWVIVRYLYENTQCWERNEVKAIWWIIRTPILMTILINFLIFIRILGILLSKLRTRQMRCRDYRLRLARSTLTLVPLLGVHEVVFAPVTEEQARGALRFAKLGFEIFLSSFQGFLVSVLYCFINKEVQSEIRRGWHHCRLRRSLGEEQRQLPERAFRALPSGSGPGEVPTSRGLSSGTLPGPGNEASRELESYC

T1 sequence (P47211 whole entry): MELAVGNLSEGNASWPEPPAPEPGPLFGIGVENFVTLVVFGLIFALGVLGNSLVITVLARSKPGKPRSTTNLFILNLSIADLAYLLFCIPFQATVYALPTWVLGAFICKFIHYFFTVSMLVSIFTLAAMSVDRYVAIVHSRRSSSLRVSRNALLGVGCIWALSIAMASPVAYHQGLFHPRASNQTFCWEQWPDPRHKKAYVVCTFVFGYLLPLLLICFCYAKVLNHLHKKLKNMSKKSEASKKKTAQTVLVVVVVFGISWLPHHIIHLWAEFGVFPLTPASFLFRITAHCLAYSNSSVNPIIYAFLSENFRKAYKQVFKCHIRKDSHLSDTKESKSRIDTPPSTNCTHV

## COC(=O)[C@@H](NC(=O)c1nn(Cc2ccc(F)cc2)c2ccccc12)C(C)C [AMB-FUBINACA]
GALR1
  inhibitory activity in concentration-response: Activity was only observed at the highest concentration (30 μM)
GPR119
  inhibition in single-point screen: inhibited to the greatest extent of any antagonist mode target
ADRA2C; antagonist mode vs EC80 of control agonist, 10-point curve
  IC50: 7.3 µM
ADRA2C; antagonist mode, 1 μM
  inhibitory activity at lower concentrations: appreciable inhibitory activity
ADRA2C; antagonist mode, concentration-response up to 30 μM
  maximum inhibition: 63.11%
[1]
  brain concentration relative to plasma: ~ 5 fold
[2]; 1 h
  LDH in cell media, normalized to total LDH: 17.09 ± 7.03%
[2]; 6 h
  LDH increase compared with vehicle: not observed
HRH2
  IC50: 13.1 µM
ADORA3
  IC50: 14.6 µM
CHRM2
  IC50: 12.9 µM
UTR2
  inhibitory activity in concentration-response: did not produce any clear activity
GIPR
  inhibitory activity in concentration-response: Activity was only observed at the highest concentration (30 μM)
